One assay concerns ATXN3-HiBiT protein. The assay is described as follows: ATXN3 Total Protein Assay (Kelly-ATXN3-HiBiT luminescence). As to conditions: Kelly-ATXN3-HiBiT cells, 48 h after addition of compound. Type of assay: cell-based. The essentials:
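Kelly cells with homozygous C-terminal HiBiT knock-in on endogenous ATXN3, 2000 per well, dosed 24 h after seeding. HiBiT lytic luminescence read 48 h after compound; sister plate read with CellTiter-Glo for viability; fold change vs DMSO.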
In general terms: With HiBiT, luminescence reflects the tagged protein that the partner subunit can reach.

The test system of another assay is total ATXN3 protein. The assay is described as follows: ATXN3 Total Protein Assay (Mesoscale Discovery, SK-N-MC cells). The assay is classed as cell-based, Human. As to conditions: incubation for 48 hours, MSD assay. The essentials:
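Human SK-N-MC neuroblastoma cells treated with compound at 30 μM to 0.6 nM for 48 h, then lysed with protease inhibitors. Total ATXN3 quantified by MSD sandwich immunoassay (mouse capture, rabbit detect antibodies, anti-rabbit MSD-ST secondary) against recombinant ATXN3 standards.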

Assay [1] relates to ATXN3 transcripts containing exon 4. The assay is described as follows: ATXN3 Quantitative Splicing Assay (qPCR, E4E5 primers/probe). Type of assay: cell-based. As to conditions: Homo sapiens, SK-N-MC cells, compounds for 24 h. The essentials:
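SK-N-MC human neuroblastoma cells treated 24 h with compound from 30 μM to 0.6 nM, 24 h after plating. Lysate cDNA was run in TaqMan qPCR, with primers/probe E4E5 detecting exon 4-containing ATXN3 transcripts and E8E9 measuring total ATXN3.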
(In qPCR the cycle at which signal appears reflects the starting amount.)

`C#CC[C@H](N)Cc1oc2c(NCc3cccs3)cc(Cl)nc2c1Br` [Compound 77, 2-[(S)-2-amino-4-pentynyl]-3-bromo-5-chloro-7-thenylamino-1-oxa-4-azaindene] gave a 50% effective concentration (EC50) in the assay with ATXN3-HiBiT protein of 0.01 to 100 nM. The half-maximal inhibitory concentration (IC50) (in the assay on total ATXN3 protein; in assay [1]) was 0.01 to 100 nM in each case.
`NC(Cc1oc2c(NCc3cccs3)cc(Cl)nc2c1Br)CC1(F)CC1` (stereo not drawn) [Compound 85, 2-[2-amino-3-(1-fluorocyclopropyl)propyl]-3-bromo-5-chloro-7-thenylamino-1-oxa-4-azaindene]: the EC50 in the assay with ATXN3-HiBiT protein lay in the range of 101 to 500 nM. Also, the IC50 (in the assay on total ATXN3 protein; in assay [1]) was 101 to 500 nM each time.
In the assay on ATXN3-HiBiT protein, `C#C[C@H](N)Cc1oc2c(NCc3cccs3)cc(Cl)nc2c1Br` [Compound 88, 2-[(R)-2-amino-3-butynyl]-3-bromo-5-chloro-7-thenylamino-1-oxa-4-azaindene] came in with an EC50 of 101 to 500 nM. For the same molecule, the IC50 (in the assay on total ATXN3 protein; in assay [1]) was 0.01 to 100 nM throughout.
On to `C[C@H](F)[C@H](N)Cc1oc2c(NCc3nccs3)cc(Cl)nc2c1Br` [Compound 90, 2-[(2R,3S)-2-amino-3-fluorobutyl]-3-bromo-5-chloro-7-{[(1,3-thiazol-2-yl)methyl]amino}-1-oxa-4-azaindene], for which the EC50 in the assay with ATXN3-HiBiT protein lay in the range of 0.01 to 100 nM. Besides, the half-inhibitory concentration (IC50) (with total ATXN3 protein; in assay [1]) was 0.01 to 100 nM throughout.
`C[C@@H](F)[C@H](N)Cc1oc2c(NCc3nccs3)cc(Cl)nc2c1Br` [Compound 91, 2-[(2R,3R)-2-amino-3-fluorobutyl]-3-bromo-5-chloro-7-{[(1,3-thiazol-2-yl)methyl]amino}-1-oxa-4-azaindene] had a half-maximal effective concentration (EC50) with ATXN3-HiBiT protein of 501 to 5000 nM. Also, the IC50 (with total ATXN3 protein; in assay [1]) was 501 to 5000 nM each time.
Molecule `C[C@H](F)[C@H](N)Cc1oc2c(NCc3ccccc3)cc(Cl)nc2c1Br` [Compound 92, 2-[(2R,3S)-2-amino-3-fluorobutyl]-7-benzylamino-3-bromo-5-chloro-1-oxa-4-azaindene] gave an EC50 in the assay on ATXN3-HiBiT protein of 101 to 500 nM. In addition, the IC50 (in the assay on total ATXN3 protein; in assay [1]) was 101 to 500 nM each time.
`C[C@@H](F)[C@H](N)Cc1oc2c(NCc3ccccc3)cc(Cl)nc2c1Br` [Compound 93, 2-[(2R,3R)-2-amino-3-fluorobutyl]-7-benzylamino-3-bromo-5-chloro-1-oxa-4-azaindene] yielded an EC50 with ATXN3-HiBiT protein of 501 to 5000 nM. Also, the IC50 (in the assay on total ATXN3 protein; in assay [1]) was 501 to 5000 nM in each case.
`C[C@H](F)[C@H](N)Cc1oc2c(NCc3ccc(F)s3)cc(Cl)nc2c1Br` [Compound 94, 2-[(2R,3S)-2-amino-3-fluorobutyl]-3-bromo-5-chloro-7-{[(5-fluoro-2-thienyl)methyl]amino}-1-oxa-4-azaindene] returned an EC50 in the assay on ATXN3-HiBiT protein of 101 to 500 nM. For the same molecule, the IC50 (in the assay with total ATXN3 protein; in assay [1]) was 101 to 500 nM in each case.
Molecule `C[C@@H](F)[C@H](N)Cc1oc2c(NCc3ccc(F)s3)cc(Cl)nc2c1Br` [Compound 95, 2-[(2R,3R)-2-amino-3-fluorobutyl]-3-bromo-5-chloro-7-{[(5-fluoro-2-thienyl)methyl]amino}-1-oxa-4-azaindene] registered an EC50 in the assay with ATXN3-HiBiT protein of 501 to 5000 nM. Also, the half-inhibitory concentration (IC50) (in the assay with total ATXN3 protein; in assay [1]) was 501 to 5000 nM in each case.
In the assay on ATXN3-HiBiT protein, `C[C@H](F)[C@H](N)Cc1oc2c(NCc3sccc3F)cc(Cl)nc2c1Br` [Compound 96, 2-[(2R,3S)-2-amino-3-fluorobutyl]-3-bromo-5-chloro-7-{[(3-fluoro-2-thienyl)methyl]amino}-1-oxa-4-azaindene] returned an EC50 of 101 to 500 nM. Further, the concentration for half-maximal inhibition (IC50) (in the assay with total ATXN3 protein; in assay [1]) was 101 to 500 nM each time.
Regarding `C[C@@H](F)[C@H](N)Cc1oc2c(NCc3sccc3F)cc(Cl)nc2c1Br` [Compound 97, 2-[(2R,3R)-2-amino-3-fluorobutyl]-3-bromo-5-chloro-7-{[(3-fluoro-2-thienyl)methyl]amino}-1-oxa-4-azaindene], in the assay on ATXN3-HiBiT protein, the EC50 lay within 501 to 5000 nM. The IC50 (in the assay on total ATXN3 protein; in assay [1]) was 501 to 5000 nM in each case.

What is called EC50 is the concentration needed to bring the measured effect to its halfway point. For orientation: IC50 means the concentration that inhibits the measured activity by half. A higher IC50 goes with a need for much substance.
